Reference: patent US20050032904A1, “Composition and use of allylamine derivatives” (priority 2003, published 2005)

How the values were obtained:
[1] = test system: COLO 205 cells; experiment: DNA fragmentation (DNA ladder) by electrophoresis of genomic DNA; format: cell-based, human
Procedure: Genomic DNAs extracted from TB-treated COLO 205 were examined by gel electrophoresis. […] In FIG. 9, the part of (A) refers to potentiation of ND-induced apoptosis by TB. […] DNA fragmentation was examined at 24 h after drug treatment. In the lanes 2 and 8, cells received mock treatment as controls. The symbols of “M” (in lanes 1 and 7), refer to “DNA size marker.” (B) average tumor volume of DMSO-treated vs. drug-treated nude mice (n=5). (C) tumor weight, (D) animal body weight, and (E) tumor/body weight ratio were measured at the end of experiment. Five samples were analyzed in each group, and values represent the mean±S.E. Comparisons were subjected to ANOVA followed by Fisher's least significant difference test. Significance was accepted at p<0.05. *TB-, ND-, and TB+ND-treated group different from DMSO-treated group. TB+ND-treated group different from TB- or ND-treated group.

[2] = test system: COLO 205 tumor xenografts; experiment: Treatment of COLO 205-derived xenografts in vivo; design: species or system nude mouse; conditions: TB 50 mg/kg, ND 5 mg/kg, intraperitoneal, 3 times per week for 6 weeks
Procedure: Genomic DNAs extracted from TB-treated COLO 205 were examined by gel electrophoresis. […] DNA fragmentation was examined at 24 h after drug treatment. In the lanes 2 and 8, cells received mock treatment as controls. […] Comparisons were subjected to ANOVA followed by Fisher's least significant difference test. […] Since, retardation of the cell cycle and/or activation of the cellular apoptotic response are two major mechanisms preventing tumor growth, we examined the TB effect on the cell cycle and apoptosis occurrence of the solid tumor derived from the implanted COLO 205. The COLO-205 cells (5×10^6) in 0.1 ml RPMI 1640 were injected subcutaneously between the scapulae of each nude mouse (purchased from National Science Council animal center, Taipei). […]

[3] = test system: malignant cells; conditions: through abnormal microtubule polymerization; previous study; cited from earlier work
[4] = test system: COLO 205 tumor xenografts; conditions: previous research; cited from earlier work
[5] = test system: hepatoma and colon cancer cells; conditions: previous studies of the inventors; cited from earlier work

Q: For `COC(=O)Nc1nc2ccc(C(=O)c3cccs3)cc2[nH]1` [ND, nocodazole], which “ND concentration at which DNA ladder patterns characteristic of apoptosis are displayed” value ([1]; ND alone, 24 h after drug treatment) is on record?
A: The value was no less than 50 nM.

Q: And the “ND concentration inducing the DNA ladder pattern” value ([1]; in the presence of 10 μM TB, 24 h)?
A: Its value is 1 nM.

Q: What about the “tumor volume vs. vehicle (DMSO plus peanut oil)” value [2] of the same compound?
A: Its value is “reduction in tumor volume”.

Q: What does the source list for `COC1=CC(=O)C[C@@H](C)[C@]12Oc1c(Cl)c(OC)cc(OC)c1C2=O` [griseofulvin]?
A: apoptosis and cell cycle arrest [3]: induced apoptosis and cell cycle arrest at the G2/M phase; effect on anti-cancer activities of nocodazole in vivo [4]: potentiates the anti-cancer activities of nocodazole

Q: With `CC(=O)N1CCN(c2ccc(OCC3COC(Cn4ccnc4)(c4ccc(Cl)cc4Cl)O3)cc2)CC1` (stereo not drawn) [ketoconazole] as the compound, how does the “cell cycle arrest and apoptosis” value [5] read?
A: Its value is “induced cell cycle arrest at the G0/G1 phase of the cell cycle and the occurrence of apoptosis”.
